Results taken from publication PMC10747479, “Improving Bioaccessibility and Bioavailability of Isoflavone Aglycones from Chickpeas by Germination and Forming β-Cyclodextrin Inclusion Complexes” (Pharmaceutics, 2023).
Where two headings read alike, the source gives them in different places.

Legend:
[1] = Tissue distribution of FMN and BCA in rats after oral CSE or inclusion complex; type: in vivo, Sprague–Dawley (SD) rats; conditions: 0.25 h after intragastric administration; for distribution characteristics of the contents in rat tissues: CSE or inclusion complex
Protocol: (§1) The specific pathogen-free (SPF) male Sprague–Dawley (SD) rats (average body weight, 220 ± 10 g) aged eight weeks old were purchased from Shanghai Slake Laboratory Animal Co., Ltd. (Shanghai, China). After being raised in an environment-controlled feeding room for 1 week, the SD rats were divided into three groups (groups A, B, and C), with six in each group. They were fasted for 12 h and supplied with unlimited water before the experiments. In group A, 200 mg of the CSE/β-CD inclusion complex (FMN: 1.04 mg, BCA: 3.58 mg) was weighed and prepared into a 3 mL suspension by pure water and then given to each rat by gavage. In group B, a certain amount of CSE with FMN of the same quality as that in the inclusion complex was weighed and prepared into a 3 mL suspension by pure water and then given to each rat by gavage. In group C, a certain amount of CSE, ensuring that the content of BCA was the same as that in the inclusion complex, was weighed and prepared into s 3 mL suspension by pure water and then given to each rat by gavage. The dosage of FMN and BCA in rats was controlled at approximately 5 mg/kg and 18 mg/kg, respectively. Approximately 300 μL rat retro-orbital blood samples were obtained and transferred to heparinized tubes […] at 0.083, 0.25, 0.50, 0.75, 1, 2, 4, 6, 8, 12, and 24 h following intragastric administration. After centrifuging at 3500 rpm for 10 min, the upper plasma was put in clean tubes and placed at −20 °C before use. The rats were killed using the carbon dioxide box after taking blood at the last time point. A batch of new SD rats was raised with the same grouping and administration method for the study of tissue composition. At 0.25 h after intragastric administration, the rats were killed, and the organs including hearts, livers, spleens, lungs, kidneys, and brains were quickly separated, put into centrifuge tubes, and temporarily stored at 4 °C.
The contents of FMN and BCA in the tissues of rats were also determined by the above-established UPLC-MS/MS method.
The tissue was washed with normal saline to remove the residual blood, the water on the surface of the tissue was dried, and the tissue was weighed, cut into small pieces, and put into a centrifuge tube. Then, it was added to normal saline of the same amount as the tissue and ground into a homogenate. Then, 300 μL of the tissue homogenate was placed into a centrifuge tube, adding 60 μL of IS and 840 μL of acetonitrile to precipitate the protein. After centrifuging at 13,000 rpm for 10 min, the supernatant was collected and centrifuged again. Finally, the obtained supernatant was taken for subsequent analysis.

[2] = In vitro release in simulated gastric and intestinal fluid; type: physicochemical; conditions: artificial gastric juice and artificial intestinal juice, 37 °C, 100 rpm, up to 24 h
Protocol: According to the determination method of dissolution and release in Chinese Pharmacopoeia 2020, the in vitro sustained release of the isoflavones in the CSE/β-CD inclusion complex and CSE was determined on a SOTAX AT. 7× dissolution tester (Stetten, Switzerland) with a stirring rate of 100 rpm at 37 °C [16] using FMN and BCA as the evaluation index. Simulated gastric fluid (SGF) and simulated intestinal fluid (SIF) were used as release media. The preparation method of SGF was to mix 16.4 mL of the HCl solution (9.5–10.5% by volume) and 10 g of pepsin into 800 mL water, and finally adjust the volume to 1000 mL of water. The preparation of SIF was to add 6.8 g of potassium dihydrogen phosphate to 500 mL of water (use 0.1 M NaOH to adjust the pH to 6.8), then add 10 g of trypsin, and finally adjust the volume to 1000 mL of water. The CSE/β-CD inclusion complex (400.00 mg, containing 2.08 mg FMN and 7.16 mg BCA), CSE (94.12 mg, containing 2.08 mg FMN), and CSE (205.16 mg, containing 7.16 mg BCA) were weighed and added to 900 mL of release media, respectively. […] The sample was added to 3 times the volume of acetonitrile to remove the protein, then centrifuged at 10000 rpm for 10 min, and the obtained supernatant was analyzed by HPLC. […]

[3] = Oral pharmacokinetics of FMN and BCA in rat plasma after CSE or CSE/β-CD inclusion complex; type: in vivo, Sprague–Dawley (SD) rats; conditions: rats; for AUC(0-inf) / AUC(0-t) / Cmax / half-life / k el / Tmax: male, Sprague-Dawley, rat; for AUC(0-inf) / AUC(0-t) / Cmax / half-life / k el / Tmax / CL / Vd: plasma, FMN approx. 5 mg/kg, BCA approx. 18 mg/kg; for AUC(0-inf) / AUC(0-t) / Cmax / half-life / k el: po; for k el: read-out: Ke (converted); for time at which concentration in rat plasma reached the peak / relative bioavailability in the inclusion complex relative to the CSE: oral; for time at which concentration in rat plasma reached the peak: given the CSE or the inclusion complex; for relative bioavailability in the inclusion complex relative to the CSE: ratio of the AUC
Protocol: as §1
To comparatively evaluate the pharmacokinetics of the isoflavones in CSE and the CSE/β-CD inclusion complex, the content of FMN and BCA in rat plasma was determined on a UPLC-MS/MS system equipped with a Waters ACQUITY UPLC and a Xevo TQ-S micro ESI-MS/MS system (Milford, America). An ACQUITY UPLC BEH-C18 (2.1 mm × 100 mm, 1.7 μm) column was applied for the separation work using 0.05% formic acid in water (A) and acetonitrile (B) as the mobile phase with a flow rate of 0.2 mL/min and a column temperature of 30 °C. The gradient elution program was as follows: 0-6 min, A 50%. The selected multiple reaction monitoring (MRM) modes in the negative ESI mode of the mass spectrometer were used for all the analytes, and the capillary voltage was set at 2.66 kV with a source temperature of 150 °C using nitrogen as the desolvation gas and cone gas. The CHL was used as an internal standard (IS).
All plasma samples were stored at −20 °C and thawed at room temperature. To precipitate the protein, a 100 μL plasma sample was precisely aspirated, adding 40 μL of the IS solutions and 260 μL of acetonitrile, and vortexing for 3 min. Then the mixture was centrifuged at 13,000 rpm for 10 min and the 5 μL supernatant was injected for = UPLC-MS/MS analysis.
Compared with the rats fed the CSE, the rats fed the inclusion complex had higher Cmax, longer elimination half-lives (t1/2), larger areas under the concentration–time curve (AUC), and lower apparent volumes of distribution (Vd) and plasma clearance (CL). […] This caused the content of FMN and BCA in rats to be higher and have a longer retention time. The relative bioavailability of the two isoflavones in the inclusion complex relative to the CSE was calculated using the ratio of the AUC. […] It is reported that β-CD and its derivatives can inhibit the activity of P-glycoprotein, which is closely related to the bioavailability of oral drugs. The decrease in P-glycoprotein activity can reduce the excretion of drugs from cells.

[4] = Inclusion ratio and drug loading of the CSE/β-CD inclusion complex; type: physicochemical; conditions: for inclusion ratio: CSE with β-CD, optimal conditions: β-CD/CSE 4:1, 40 °C, 400 rpm, 2 h; for drug loading in the CSE/β-CD inclusion complex: optimal conditions
Protocol: A saturated aqueous solution method was used to prepare the inclusion complexes. β-CD (456 mg) was dispersed into 20 mL of water and heated with a water bath. CSE was accurately weighed according to the mass ratio of β-CD/CSE at 7:1 (g/g) to 3:1 (g/g) and dissolved in a small amount of ethanol to obtain CSE ethanol suspension, which was slowly dripped into the β-CD aqueous solution under 30 to 70 °C and at a stirring speed of 200 rpm to 1000 rpm. The mixed solution was stirred for 0.5 h to 4 h. After cooling to room temperature, the mixture was placed at 4 °C for 24 h, and then filtered quickly. The filter residue was moistened with a small amount of ethanol and dried to obtain the β-CD/CSE inclusion complex. The amounts of BCA and FMN in the initial CSE (Mc) and filtrate (Mf) were determined under the same conditions as above using an Agilent 1260 Infinity II HPLC. The inclusion ratio of FMN and BCA was used as an evaluation index to optimize the preparation methods. The calculation formula of the inclusion ratio (R%) was as follows:(1) R%=1−Mf/Mc×100% where Mf is the mass of the remaining isoflavones in the filtrate and Mc is the mass of the isoflavones in the CSE initially added.

[5] = oral gavage of CSE/β-CD inclusion complex

| Compound | content in the tissues, inclusion complex compared with CSE [1] | distribution characteristics of the contents in rat tissues [1] | solubility and dissolution properties by forming the CSE/β-CD inclusion complex, compared with CSE [2] | AUC(0-inf) [3, 5] [ng·h/mL] | AUC(0-t) [3, 5] [ng·h/mL] | Cmax [3, 5] [ng/mL] | half-life [3, 5] [h] | k el [3, 5] [s⁻¹] | AUC(0-inf) ([3]; oral gavage of CSE) [ng·h/mL] | AUC(0-t) ([3]; oral gavage of CSE) [ng·h/mL] | Cmax ([3]; oral gavage of CSE) [ng/mL] | half-life ([3]; oral gavage of CSE) [h] | k el ([3]; oral gavage of CSE) [s⁻¹] | Tmax ([3]; oral gavage of CSE) [h] | CL [3, 5] [L/h] | Vd [3, 5] [L] | CL ([3]; oral gavage of CSE) [L/h] | Vd ([3]; oral gavage of CSE) [L] | time at which concentration in rat plasma reached the peak [3] [min] | relative bioavailability in the inclusion complex relative to the CSE [3] [%] | other results |
| --- | --- | --- | --- | --- | --- | --- | --- | --- | --- | --- | --- | --- | --- | --- | --- | --- | --- | --- | --- | --- | --- |
| COc1ccc(-c2coc3cc(O)ccc3c2=O)cc1 [FMN, formononetin] | significantly higher | liver > kidneys > lungs > spleen > heart > brain | significantly improved | 72 ± 25.7 | 51.5 ± 12.3 | 21 ± 2.81 | 4.51 ± 2.07 | 5.56e-05 | 37 ± 12.9 | 30 ± 15.2 | 14.4 ± 1.46 | 3.84 ± 2.1 | 6.39e-05 | 0.25 | 75.79 ± 23.47 | 441.60 ± 140.88 | 148.14 ± 47.18 | 722.51 ± 197.97 | 15 | 171.6 | inclusion ratio [4]: 53.31%; drug loading in the CSE/β-CD inclusion complex [4]: 5.2 mg/g |
| COc1ccc(-c2coc3cc(O)cc(O)c3c2=O)cc1 [BCA, biochanin A] | significantly higher | liver > kidneys > lungs > spleen > heart > brain | significantly improved | 173 ± 56.3 | 102 ± 45.3 | 22.4 ± 2.45 | 7.33 ± 3.07 | 3.06e-05 | 61.9 ± 15.5 | 37.6 ± 17.7 | 13.9 ± 3.17 | 4.63 ± 0.88 | 4.17e-05 | 0.25 | 93.83 ± 29.01 | 896.37 ± 113.90 | 252.24 ± 52.73 | 1635.82 ± 92.84 | 15 | 270.7 | inclusion ratio [4]: 81.79%; drug loading in the CSE/β-CD inclusion complex [4]: 17.9 mg/g |
